Results reported in patent US20190350889A1, “Compositions And Methods Of Use Of Phorbol Esters In The Treatment Of Parkinson's Disease” (priority 2016, published 2019).

Assays:
[1] = polar organic solvents and water; cited from earlier work
[2] = tested on: HIV; conditions: MT-4 cells; Mekkawy et al. 2000; cited from earlier work
[3] = Dose ranging study: toxicity and side effects of different TPA doses administered clinically by i.v. infusion; type: in vivo, human
Experimental: TPA solution in a sterile syringe was injected into 200 ml of sterile saline and mixed well for i.v. infusion.
One mg TPA in solution was mixed well with 200 ml of sterile saline for intravenous infusion which was completed in 1 h at the rate of 16 μg/min. […] The above symptoms could be alleviated by giving the patients glucocorticoids. […] However, these side effects were short lived and reversible.
0.5 mg of TPA in solution was mixed well with 200 ml of saline for intravenous infusion which was completed in 1 h at the rate of 8 μg/min. […] Difficulty in breathing was not observed. The cardiac, hepatic, renal and pulmonary functions were all normal.
0.25 mg of TPA in solution was mixed well with 200 ml of saline for intravenous infusion which was completed in 1 h at the rate of 4 μg/min. […] The cardiac, hepatic, renal and pulmonary functions were all normal.

[4] = patients with bone marrow function depressed by chemotherapy; Han et al. 1998; cited from earlier work
[5] = 0.25 mg/patient x 4/week, i.v. infusion
[6] = 0.5 mg/patient x 2/week, i.v. infusion
[7] = 1 mg/patient/week, i.v. infusion
[8] = 1 mg/patient/week, i.v. infusion in 1 h at 16 μg/min

SMILES | solubility [1] | HIV-cytopathic effects [2] | Hb in the urine [3, 5] | cardiac, hepatic, renal and pulmonary functions [3, 5] | difficulty in breathing [3, 5] | symptoms such as chills and fever ([3]; 0.25 mg/patient x 4/week, i.v. infusion in 1 h at 4 μg/min) | Hb in the urine [3, 6] | cardiac, hepatic, renal and pulmonary functions [3, 6] | difficulty in breathing [3, 6] | tolerability [3, 6] | Hb in the urine [3, 7] | bleeding [3, 7] | cardiac, hepatic, renal and pulmonary functions [3, 7] | difficulty in breathing [3, 7] | duration of chills [3, 8] | duration of fever [3, 8] [h] | fever: patients' temperature reached [3, 8] | onset of chills after TPA administration [3, 8] | local irritation ([3]; TPA application (reason for giving it by i.v. infusion)) | circulating white blood cells and neutrophils [4]
CC1=C[C@H]2[C@@]3(O)[C@H](C)[C@@H](O)[C@]4(O)[C@H]([C@@H]3C=C(CO)C[C@]2(O)C1=O)C4(C)C [Phorbol] | well soluble in most polar organic solvents and in water |  |  |  |  |  |  |  |  |  |  |  |  |  |  |  |  |  |  | 
CCCCCCCCCCCCCC(=O)O[C@@H]1[C@@H](C)[C@@]2(O)[C@@H](C=C(CO)C[C@]3(O)C(=O)C(C)=C[C@@H]23)[C@@H]2C(C)(C)[C@]12OC(C)=O (stereo in doubt) [TPA, 12-O-tetradecanoylphorbol-13-acetate] |  | inhibit the HIV-cytopathic effects on MT-4 cells | No Hb was detected in the urine | all normal | no patient suffered difficulty in breathing | also observed, but to a much lesser extent than with the higher dosages | Occasionally, Hb was detected in patients' urine | all normal | not observed | tolerated the lower dose more easily | Hb was detected in the urine | caused a minority of patients to bleed | all found to be normal | several patients suffered for a short period of time difficulty in breathing | about 30 min | 3 to 5 | 37.5-39.5 °C | One hour after TPA administration | strong local irritation | cause an increase in circulating white blood cells and neutrophils
